Key:
Cholinesterase [1] = target: T1, Cholinesterase (Equus caballus, UniProt P81908); test: Inhibition of equine BChE
Acetylcholinesterase [2] = target: T2, Acetylcholinesterase (Electrophorus electricus, UniProt O42275); test: Inhibition of electric eel AChE
[3] = target: T3, Cholinesterases; ACHE & BCHE (Homo sapiens) (UniProt P06276+P22303); test: Selectivity index, ratio of IC50 for recombinant human serum BChE to IC50 for recombinant human serum AChE; type: protein assay
Cholinesterase [4] = target: T4, Cholinesterase (Homo sapiens, UniProt P06276); test: Inhibition of recombinant human serum BChE using acetylthiocholine iodide as substrate preincubated for 20 mins followed by substrate addition by Ellman's method
T4 sequence (P06276 whole entry): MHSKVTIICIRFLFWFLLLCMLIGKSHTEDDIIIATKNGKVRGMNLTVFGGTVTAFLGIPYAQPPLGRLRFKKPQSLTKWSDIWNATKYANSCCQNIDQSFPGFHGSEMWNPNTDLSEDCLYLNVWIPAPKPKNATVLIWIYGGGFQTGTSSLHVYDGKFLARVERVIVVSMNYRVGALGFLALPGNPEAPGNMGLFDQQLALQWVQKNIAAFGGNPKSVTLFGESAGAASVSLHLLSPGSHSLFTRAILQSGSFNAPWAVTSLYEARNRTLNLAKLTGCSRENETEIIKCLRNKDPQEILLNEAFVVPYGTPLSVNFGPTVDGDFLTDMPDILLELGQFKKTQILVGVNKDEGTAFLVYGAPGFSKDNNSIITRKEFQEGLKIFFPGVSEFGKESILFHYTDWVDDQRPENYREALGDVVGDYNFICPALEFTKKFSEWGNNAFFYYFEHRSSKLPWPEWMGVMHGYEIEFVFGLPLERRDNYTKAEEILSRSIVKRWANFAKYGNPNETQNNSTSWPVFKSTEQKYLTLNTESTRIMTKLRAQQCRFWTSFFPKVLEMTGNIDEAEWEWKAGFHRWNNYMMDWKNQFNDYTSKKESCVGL

Acetylcholinesterase [5] = target: T5, Acetylcholinesterase (Homo sapiens, UniProt P22303); test: Inhibition of recombinant human serum AChE using acetylthiocholine iodide as substrate preincubated for 20 mins followed by substrate addition by Ellman's method
T5 sequence (P22303 whole entry): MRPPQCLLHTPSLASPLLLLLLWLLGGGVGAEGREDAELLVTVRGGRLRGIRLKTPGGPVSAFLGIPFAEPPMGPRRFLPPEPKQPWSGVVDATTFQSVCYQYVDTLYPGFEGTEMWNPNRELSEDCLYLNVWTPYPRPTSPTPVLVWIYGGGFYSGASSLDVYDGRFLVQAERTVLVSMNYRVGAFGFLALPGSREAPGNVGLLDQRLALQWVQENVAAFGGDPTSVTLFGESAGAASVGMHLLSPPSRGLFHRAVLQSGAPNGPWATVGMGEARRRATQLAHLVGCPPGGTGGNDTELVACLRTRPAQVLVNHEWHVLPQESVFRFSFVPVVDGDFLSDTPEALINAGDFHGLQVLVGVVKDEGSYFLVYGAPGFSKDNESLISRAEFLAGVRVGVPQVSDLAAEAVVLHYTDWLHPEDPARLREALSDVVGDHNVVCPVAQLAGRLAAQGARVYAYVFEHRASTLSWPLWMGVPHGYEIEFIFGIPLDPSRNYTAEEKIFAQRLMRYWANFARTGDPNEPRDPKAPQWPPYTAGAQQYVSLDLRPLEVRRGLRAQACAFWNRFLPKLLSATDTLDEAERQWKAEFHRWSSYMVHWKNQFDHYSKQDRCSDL

[6] = Selectivity index, ratio of IC50 for electric eel AChE to IC50 for equine BChE
Cholinesterase [7] = target: T4, Cholinesterase; test: Inhibition of BChE (unknown origin)
[8] = target: T3, Cholinesterases; ACHE & BCHE (Homo sapiens); test: Selectivity index, ratio of IC50 for AChE (unknown origin) to BChE (unknown origin); type: protein assay
Acetylcholinesterase [9] = target: T5, Acetylcholinesterase; test: Inhibition of AChE (unknown origin)
Acetylcholinesterase [10] = target: T5, Acetylcholinesterase; test: Inhibition of recombinant human AChE
Cholinesterase [11] = target: T4, Cholinesterase; test: Inhibition of human BChE
[12] = target: T3, Cholinesterases; ACHE & BCHE (Homo sapiens); test: Selectivity index, ratio of IC50 for human AChE to IC50 for human BChE; type: protein assay
Acetylcholinesterase [13] = target: T5, Acetylcholinesterase; test: Inhibition of human AChE
Acetylcholinesterase [14] = target: T5, Acetylcholinesterase
Description: Inhibition of human erythrocyte AChE using acetylthiocholine iodide as substrate preincubated for 30 mins followed by substrate addition measured after 5 mins by Ellman's method

Cholinesterase [15] = target: T4, Cholinesterase; test: Inhibition of human serum BChE using butyrylthiocholine as substrate by Ellman's method
[16] = target: T6, Amine oxidase [flavin-containing] B (Homo sapiens, UniProt P27338); test: Inhibition of MAO-B (unknown origin)
T6 sequence (P27338 whole entry): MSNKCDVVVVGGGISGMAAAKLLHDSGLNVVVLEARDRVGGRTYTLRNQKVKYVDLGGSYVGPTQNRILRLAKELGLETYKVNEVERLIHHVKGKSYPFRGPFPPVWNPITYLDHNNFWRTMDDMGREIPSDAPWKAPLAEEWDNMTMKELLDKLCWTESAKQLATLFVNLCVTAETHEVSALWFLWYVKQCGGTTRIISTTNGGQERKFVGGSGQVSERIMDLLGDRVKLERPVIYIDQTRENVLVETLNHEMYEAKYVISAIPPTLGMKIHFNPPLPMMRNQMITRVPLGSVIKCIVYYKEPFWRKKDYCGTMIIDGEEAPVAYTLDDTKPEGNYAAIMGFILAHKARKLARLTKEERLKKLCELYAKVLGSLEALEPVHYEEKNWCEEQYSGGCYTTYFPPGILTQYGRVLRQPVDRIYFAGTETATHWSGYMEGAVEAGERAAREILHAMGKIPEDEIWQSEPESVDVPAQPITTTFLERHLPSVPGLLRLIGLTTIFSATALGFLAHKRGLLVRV

[17] = target: T7, Amine oxidase [flavin-containing] A (Homo sapiens, UniProt P21397); test: Inhibition of MAO-A (unknown origin)
T7 sequence (P21397 whole entry): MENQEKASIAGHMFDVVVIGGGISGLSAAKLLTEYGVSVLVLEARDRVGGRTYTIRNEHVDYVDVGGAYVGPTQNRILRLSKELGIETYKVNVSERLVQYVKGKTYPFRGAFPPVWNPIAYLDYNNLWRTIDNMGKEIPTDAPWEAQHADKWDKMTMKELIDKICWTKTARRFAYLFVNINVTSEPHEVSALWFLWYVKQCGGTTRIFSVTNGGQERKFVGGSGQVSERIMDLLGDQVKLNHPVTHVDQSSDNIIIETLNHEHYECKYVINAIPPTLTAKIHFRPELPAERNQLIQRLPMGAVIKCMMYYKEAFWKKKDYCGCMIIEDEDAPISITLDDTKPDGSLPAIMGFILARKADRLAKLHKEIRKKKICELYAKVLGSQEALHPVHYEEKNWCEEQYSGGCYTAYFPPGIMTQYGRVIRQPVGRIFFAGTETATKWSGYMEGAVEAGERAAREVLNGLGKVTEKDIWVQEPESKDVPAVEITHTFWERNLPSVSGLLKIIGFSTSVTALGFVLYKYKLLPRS

Cholinesterase [18] = target: T1, Cholinesterase; test: Inhibition of equine BChE using acetylthiocholine iodide as substrate preincubated for 10 mins followed by substrate addition by Ellman's method
Acetylcholinesterase [19] = target: T5, Acetylcholinesterase; test: Inhibition of recombinant human serum AChE using acetylthiocholine iodide as substrate preincubated for 20 mins followed by substrate addition measured after 5 mins by Ellman's method
Cholinesterase [20] = target: T4, Cholinesterase; test: Inhibition of recombinant human serum BChE using butyrylthiocholine iodide as substrate preincubated for 20 mins followed by substrate addition measured after 5 mins by Ellman's method
Acetylcholinesterase [21] = target: T8, Acetylcholinesterase (Rattus norvegicus, UniProt P37136); test: Inhibition of rat AChE
T8 sequence (P37136 whole entry): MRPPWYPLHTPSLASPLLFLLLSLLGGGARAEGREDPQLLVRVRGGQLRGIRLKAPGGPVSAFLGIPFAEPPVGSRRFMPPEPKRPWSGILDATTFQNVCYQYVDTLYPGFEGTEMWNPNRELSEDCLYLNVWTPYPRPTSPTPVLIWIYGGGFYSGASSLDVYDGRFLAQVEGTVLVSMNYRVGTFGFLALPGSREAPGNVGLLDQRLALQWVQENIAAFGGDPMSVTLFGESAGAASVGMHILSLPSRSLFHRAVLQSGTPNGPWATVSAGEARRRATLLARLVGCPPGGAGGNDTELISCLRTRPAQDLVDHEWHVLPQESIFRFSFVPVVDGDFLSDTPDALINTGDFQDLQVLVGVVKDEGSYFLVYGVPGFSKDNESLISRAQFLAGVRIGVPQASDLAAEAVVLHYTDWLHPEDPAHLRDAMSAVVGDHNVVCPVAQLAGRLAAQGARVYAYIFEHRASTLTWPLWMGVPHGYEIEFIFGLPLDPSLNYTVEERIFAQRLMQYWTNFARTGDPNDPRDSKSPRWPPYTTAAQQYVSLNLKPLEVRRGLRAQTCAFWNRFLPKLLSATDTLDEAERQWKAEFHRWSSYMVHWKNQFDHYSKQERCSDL

Acetylcholinesterase [22] = target: T2, Acetylcholinesterase; test: Inhibition of electric eel AChE using acetylthiocholine iodide as substrate incubated for 30 mins by Ellman's method
Acetylcholinesterase [23] = target: T2, Acetylcholinesterase; test: Binding affinity to electric eel AChE assessed as inhibition constant using acetylthiocholine iodide as substrate incubated for 30 mins by Ellman's method

T2 sequence (O42275 whole entry): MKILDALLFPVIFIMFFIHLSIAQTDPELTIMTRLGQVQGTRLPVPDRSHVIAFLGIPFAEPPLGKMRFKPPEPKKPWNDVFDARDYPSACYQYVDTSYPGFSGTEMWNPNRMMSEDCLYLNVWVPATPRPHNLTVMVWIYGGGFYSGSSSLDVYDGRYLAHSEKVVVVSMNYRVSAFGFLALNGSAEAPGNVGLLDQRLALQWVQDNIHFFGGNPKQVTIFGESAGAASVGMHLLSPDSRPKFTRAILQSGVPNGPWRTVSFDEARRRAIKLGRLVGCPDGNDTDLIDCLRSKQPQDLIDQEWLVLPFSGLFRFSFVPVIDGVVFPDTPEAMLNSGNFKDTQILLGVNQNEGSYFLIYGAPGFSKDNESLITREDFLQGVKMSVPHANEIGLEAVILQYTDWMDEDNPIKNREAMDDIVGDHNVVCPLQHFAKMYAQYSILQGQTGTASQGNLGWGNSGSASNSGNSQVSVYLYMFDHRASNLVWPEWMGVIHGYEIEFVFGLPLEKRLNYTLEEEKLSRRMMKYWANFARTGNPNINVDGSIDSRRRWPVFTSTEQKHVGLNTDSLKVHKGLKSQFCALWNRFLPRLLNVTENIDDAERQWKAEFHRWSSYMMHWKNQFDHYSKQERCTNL
T3 sequence (P06276 whole entry, looked up): as the sequence (P06276 whole entry) above
T3 sequence (P22303 whole entry, looked up): as the sequence (P22303 whole entry) above
T1 sequence (P81908 whole entry): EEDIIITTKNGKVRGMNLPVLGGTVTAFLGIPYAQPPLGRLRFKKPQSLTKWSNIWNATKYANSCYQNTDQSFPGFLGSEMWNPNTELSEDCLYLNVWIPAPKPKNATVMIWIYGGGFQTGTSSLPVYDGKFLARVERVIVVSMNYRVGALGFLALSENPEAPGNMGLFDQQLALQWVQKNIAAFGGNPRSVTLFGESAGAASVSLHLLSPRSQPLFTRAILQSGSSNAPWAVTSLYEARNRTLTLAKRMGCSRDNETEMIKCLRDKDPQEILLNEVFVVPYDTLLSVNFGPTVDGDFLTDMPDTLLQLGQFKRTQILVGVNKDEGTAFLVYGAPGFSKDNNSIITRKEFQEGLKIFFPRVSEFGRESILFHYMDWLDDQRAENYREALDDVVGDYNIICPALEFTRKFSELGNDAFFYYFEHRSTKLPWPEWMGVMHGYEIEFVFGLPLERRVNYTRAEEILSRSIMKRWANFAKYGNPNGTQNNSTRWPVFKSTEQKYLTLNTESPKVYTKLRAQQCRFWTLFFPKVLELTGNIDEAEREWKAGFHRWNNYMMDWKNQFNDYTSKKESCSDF

Question: With `CCCCCCCNC(=O)OCCN1CCN(CCCCCOc2ccc3ccc(=O)[nH]c3c2)CC1` as the molecule, how does the IC50 (Cholinesterase [1]) read?
Answer: 1800 nM

Question: What about the IC50 (Acetylcholinesterase [2]) of the same molecule?
Answer: 390 nM

Question: For `CNC(=O)Oc1cccc(CN(C)CCCCCCCOc2ccc(-c3cc4ccccc4oc3=O)cc2)c1`, which Ratio IC50 [3] is on record?
Answer: 49

Question: What about the IC50 (Cholinesterase [4]) of the same molecule?
Answer: 59.4 nM

Question: And the IC50 (Acetylcholinesterase [5])?
Answer: 1.2 nM

Question: For `CN(C)C(=O)Oc1cccc(-c2coc3c4c(ccc3c2=O)OC(C)(C)C=C4)c1`, which IC50 (Cholinesterase [1]) is on record?
Answer: 680 nM

Question: What about the IC50 (Acetylcholinesterase [2]) of the same molecule?
Answer: 33600 nM

Question: What about the Ratio IC50 [6] of the same molecule?
Answer: 49.3

Question: For `CCNC(=O)Oc1ccc2c(c1)[C@]1(C)CCO[C@@H]1O2`, which IC50 (Cholinesterase [7]) is on record?
Answer: 6 nM

Question: What about the Ratio IC50 [8] of the same molecule?
Answer: 60

Question: What about the IC50 (Acetylcholinesterase [9]) of the same molecule?
Answer: 36 nM

Question: Which IC50 (Cholinesterase [1]) does the source give for `CCCCCCCNC(=O)Oc1ccc2[nH]cc(CCNC(=O)c3ccccc3Nc3ccccc3)c2c1` here?
Answer: 7 nM

Question: What about the IC50 (Acetylcholinesterase [2]) of the same molecule?
Answer: > 100000 nM

Question: And the Ratio IC50 [6]?
Answer: > 10000

Question: Which IC50 (Acetylcholinesterase [10]) does the source give for `O=C1CCOc2cc(OCCCCCSC(=S)N3CCCCC3)ccc21` here?
Answer: 100 nM

Question: Which results are given for `CN1c2ccc(OC(=O)NCC3CCCCC3)cc2[C@]2(C)CCN(CCc3ccccc3)[C@H]12`?
Answer: Ratio IC50 [8]: 1390; IC50 (Acetylcholinesterase [9]): 2500 nM

Question: Which results are given for `O=C(Oc1cc(O)c2c(=O)cc(-c3ccc(O)cc3)oc2c1)N1CCCCC1`?
Answer: IC50 (Cholinesterase [11]): 94 nM; Ratio IC50 [12]: 665; IC50 (Acetylcholinesterase [13]): 62500 nM

Question: Which Ratio IC50 [8] does the source give for `CC(C)c1ccc(NC(=O)Oc2ccc3c(c2)[C@]2(C)CCN[C@@H]2N3)cc1` here?
Answer: 110

Question: For `CNC(=O)Oc1cccc(CN(C)CCCCCCCOc2ccc3c(=O)c4ccccc4oc3c2)c1`, which IC50 (Acetylcholinesterase [14]) is on record?
Answer: 51.6 nM

Question: What about the IC50 (Cholinesterase [15]) of the same molecule?
Answer: 0.32 nM

Question: Which IC50 (Acetylcholinesterase [10]) does the source give for `C#CCNC1CCc2c(OC(=O)N(C)C)cccc21` (stereo not drawn) here?
Answer: 86000 nM

Question: What about the IC50 [16] of the same molecule?
Answer: 260 nM

Question: What about the IC50 [17] of the same molecule?
Answer: 53 nM

Question: For `CCCCCCNC(=O)OCn1nc(-c2ccccc2OC)ccc1=O`, which IC50 (Cholinesterase [18]) is on record?
Answer: 35000 nM

Question: Which IC50 (Cholinesterase [7]) does the source give for `COc1ccc2[nH]cc(CCC(=O)CCCCCCNC(=O)Oc3ccc4c(c3)CN3CCc5ccccc5C3N4C)c2c1` (stereo not drawn) here?
Answer: 102 nM

Question: What does the source list for `C#CCN(C)C1CCc2cccc(OC(=O)N(C)C)c21` (stereo not drawn)?
Answer: IC50 (Acetylcholinesterase [10]): 730000 nM; IC50 [16]: 330 nM; IC50 [17]: 7000 nM

Question: Which IC50 (Cholinesterase [7]) does the source give for `COc1cc(/C=C/C(=O)NCCCCNC(=O)Oc2ccc3c(c2)CN2CCc4ccccc4C2N3C)ccc1O` (stereo not drawn) here?
Answer: 102 nM

Question: With `CNC(=O)Oc1cccc(CN(C)CCCCCCCOc2cccc(-c3cc(=O)c4ccccc4o3)c2)c1` as the molecule, how does the Ratio IC50 [3] read?
Answer: 122

Question: With `CNC(=O)Oc1cccc(CN(C)CCCCCCOc2ccc(C(=O)/C=C/c3cc(OC)c(OC)c(OC)c3)c(O)c2)c1` as the molecule, how does the Ratio IC50 [3] read?
Answer: 23

Question: What about the IC50 (Acetylcholinesterase [19]) of the same molecule?
Answer: 1.33 nM

Question: What about the IC50 (Cholinesterase [20]) of the same molecule?
Answer: 30.2 nM

Question: Which results are given for `CNC(=O)Oc1cccc(CN(C)CCCCCCOc2ccc3c(c2)O/C(=C\c2cc(OC)c(OC)c(OC)c2)C3=O)c1`?
Answer: Ratio IC50 [3]: 261; IC50 (Acetylcholinesterase [19]): 0.52 nM; IC50 (Cholinesterase [20]): 136 nM

Question: For `CCCCCCCNC(=O)Oc1ccc2c(c1)CN1CCc3ccc(/N=N\c4ccccc4)cc3C1N2C` (stereo not drawn), which IC50 (Cholinesterase [7]) is on record?
Answer: 44.5 nM

Question: For `CN1CCN(C(=O)Oc2ccc(-c3coc4cc(OC(=O)N5CCN(C)CC5)ccc4c3=O)cc2)CC1`, which IC50 (Acetylcholinesterase [21]) is on record?
Answer: 1200 nM

Question: Which Ratio IC50 [6] does the source give for `CCN(C)C(=O)Oc1cc(OC(=O)N(C)CC)cc(C(O)CNC(C)(C)CC)c1` (stereo not drawn) here?
Answer: > 862

Question: Which results are given for `COC(=O)CCC/C=C\C/C=C\C/C=C\CCOC(=O)Nc1cccc(Cl)c1`?
Answer: IC50 (Acetylcholinesterase [22]): 16800 nM; Ki (Acetylcholinesterase [23]): 930 nM

Question: With `CCC(C)(C)NCC(O)c1cc(O)cc(OC(=O)N(C)C)c1` (stereo not drawn) as the molecule, how does the IC50 (Cholinesterase [11]) read?
Answer: 50 nM

Question: What about the Ratio IC50 [12] of the same molecule?
Answer: 400

Question: What about the IC50 (Acetylcholinesterase [13]) of the same molecule?
Answer: 20000 nM

Question: For `CC(C)c1ccc(NC(=O)Oc2ccc3c(c2)C2(C)COC(C2)O3)cc1` (stereo not drawn), which Ratio IC50 [8] is on record?
Answer: 195
